We go through three compounds from US20070270436A1, “NOVEL AMINO- AND IMINO-ALKYLPIPERAZINES” (Recordati Ireland Limited, priority 2006, published 2007).

Where two headings read alike, the source gives them in different places. A value given as a limit tells only on which side of the number the result lay.

In general, ED50 refers to the dose at which the effect has come halfway, by size or by number of responders. Usually Ki stands for the equilibrium dissociation constant of an inhibitor or competing ligand from its target. By inhibition is commonly meant the share of the control response that was lost under treatment.

For one assay, the system named is urinary bladder. Description: Cystometric parameters in conscious rats after oral administration. Conditions: 3 mg/kg p.o., 1-5 h after treatment. It counts as in vivo, rat. The protocol:
Male Sprague-Dawley rats [Crl: CD® (SD) IGS BR] of 300-400 g body weight supplied by Charles River Italia were used. The animals were housed with free access to food and water and maintained on a forced 12-hour-light/12-hour-dark cycle at 22-24° C. of temperature, except during the experiment. To quantify urodynamic parameters in conscious rats, cystometrographic studies were performed according to the procedure previously reported (Guarneri et al., Pharmacol. Res. 24: 175, 1991).
Briefly, the rats were anaesthetised by intraperitoneal administration of 3 ml/kg of Equithensin solution (pentobarbital 30 mg/kg and chloral hydrate 125 mg/kg) and placed in a supine position. An approximately 10 mm-long midline incision was made in the shaved and cleaned abdominal wall. The urinary bladder was gently freed from adhering tissues, emptied and then cannulated via an incision in the bladder body, using a polyethylene cannula (0.58-mm internal diameter, 0.96-mm external diameter) which was permanently sutured with silk thread. The cannula was exteriorised through a subcutaneous tunnel in the retroscapular area, where it was connected to a plastic adapter in order to avoid the risk of removal by the animal. For drug testing, the rats were utilised one day after implantation.
On the day of the experiment, the rats were placed in modified Bollman cages, i.e., restraining cages that were large enough to permit the rats to adopt a normal crouched posture, but narrow enough to prevent turning around. After a stabilisation period of about 20 minutes, the free tip of the bladder cannula was connected through a T-shaped tube to a pressure transducer (Statham P23XL) and to a peristaltic pump (Gilson minipuls 2) for continues infusion of a warm (37° C.) saline solution into the urinary bladder, at a constant rate of 0.1 ml/minute. The intraluminal-pressure signal during infusion of saline into the bladder was continuously recorded on a polygraph (Rectigraph-8K San-ei with BM614/2 amplifier from Biomedica Mangoni). The cystometrogram was used to evaluate the urodynamic parameters of bladder volume capacity (BVC) and micturition pressure (MP). BVC (ml) is defined as the volume of saline infused into the bladder necessary to induce detrusor contraction followed by micturition. MP (mmHg) is defined as the maximal intravesical pressure caused by contraction during micturition. Basal BVC and MP values were evaluated as mean of the values observed in the cystometrograms recorded in an initial period of 30-60 minutes. Following determination of basal BVC and MP, the infusion was interrupted and the test compounds were administered orally by a stomach tube. Bladder infusion was resumed and changes in BVC and MP were evaluated from the mean values obtained in the cystometrograms observed during 1, 2, 3, 4 and 5 hours after treatment. Compounds were administered in a volume of 2 ml/kg and groups of control animals received the same amount of vehicle (0.5% methocel in water) orally.
Data were expressed as mean ±standard error. The percent changes of BVC and MP versus the basal values, as well as Δ values (difference in ml or mmHg) of BVC and MP (BVC or MP at time “x” minus basal value), were also evaluated for each rat/time. In the figures, data were reported as % changes versus basal values.
Statistical analysis on BVC and MP values, as well as on Δ values, was performed by S.A.S./STAT software, version 6.12. The observed differences between vehicle (control) and test treatments were evaluated on Δ values of BVC and MP, whereas the differences between the values at different times versus basal values were analyzed on original BVC and MP data.

In assay [1] the test system is rhythmic bladder-voiding contractions. Description: Rhythmic bladder-voiding contractions induced by bladder filling in anaesthetised rats. The class given is in vivo, rat. The conditions noted are these: for ED50: Rattus norvegicus. How it is done:
Female Sprague-Dawley rats weighing 225-275 g (Crl: CD® (SD) IGS BR, Charles River Italia) were used. The animals were housed with free access to food and water and maintained on a forced 12-hour alternating light-dark cycle at 22-24° C. for at least one week, except during the experiment. The activity on rhythmic bladder voiding contractions was evaluated according to the method of Dray (Dray J., Pharmacol. Methods, 13:157, 1985), with some modifications as in Guarneri (Guarneri, Pharmacol. Res. 27:173, 1993). Briefly, the rats were anaesthetised by subcutaneous injection of 1.25 g/kg (5 ml/kg) urethane, after which the urinary bladder was catheterised via the urethra using PE 50 polyethylene tubing filled with physiological saline. The catheter was tied in place with a ligature around the external urethral orifice and was connected to conventional pressure transducers (Statham P23 ID/P23 XL). […] The bladder was then filled via the recording catheter by incremental volumes of warm (37° C.) saline until reflex bladder-voiding contractions occurred (usually 0.8-1.5 ml). For intravenous injection of bioactive compounds, PE 50 polyethylene tubing filled with physiological saline was inserted into the jugular vein.
From the cystometrogram, the number of contractions recorded 15 minutes before (basal values) and after treatment, as well as the mean amplitude of these contractions (mean height of the peaks in mmHg), was evaluated.
Since most compounds produced an effect that was relatively rapid in onset and led to a complete cessation of bladder contractions, bioactivity was conveniently estimated by measuring the duration of bladder quiescence (i.e., the time during which no contractions occurred). The number of tested animals showing a reduction in the number of contractions higher than 30% of that observed in the basal period was recorded too.
The extrapolated doses which induced a reduction in the number of contractions greater than 30% in 50% of the treated rats (ED50) were also evaluated by the method of Bliss (Bliss C. I., Quart J. Pharm. Pharmacol. 11, 192-216, 1938).

For the next assay, the system named is primates. Conditions: cited from earlier work.
Assay [2] addresses T1, human 5HT1A-serotonergic receptor (Homo sapiens, UniProt P08908).
T1 construct: expressed in transfected cells; host or cells: HeLa (human), stably transfected; membranes
T1 sequence (P08908 1-422): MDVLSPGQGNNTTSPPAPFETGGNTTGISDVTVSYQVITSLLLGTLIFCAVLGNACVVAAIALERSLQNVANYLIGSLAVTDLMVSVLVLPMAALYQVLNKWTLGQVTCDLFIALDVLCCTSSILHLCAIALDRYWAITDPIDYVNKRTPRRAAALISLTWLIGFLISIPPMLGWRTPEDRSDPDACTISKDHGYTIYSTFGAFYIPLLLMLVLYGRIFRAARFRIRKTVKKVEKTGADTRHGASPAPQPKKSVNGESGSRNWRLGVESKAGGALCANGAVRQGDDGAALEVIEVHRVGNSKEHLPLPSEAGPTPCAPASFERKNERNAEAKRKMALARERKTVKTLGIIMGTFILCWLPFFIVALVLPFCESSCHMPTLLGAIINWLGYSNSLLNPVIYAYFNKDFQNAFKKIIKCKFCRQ
Description: Radioligand binding to recombinant 5-HT1A receptor ([3H]8-OH-DPAT, HeLa cell membranes). The conditions noted are these: 1 nM [3H]8-OH-DPAT; Ki from IC50 by the Cheng equation; read-out: Ki (nM), binding affinity for 5HT1A receptor. In a few lines:
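Membranes from HeLa cells stably expressing human 5-HT1A incubated 30 min at 30 °C with 1 nM [3H]8-OH-DPAT in 50 mM Tris pH 7.4, 2.5 mM MgCl2, 10 μM pargyline; non-specific binding with 10 μM 5-HT. Filtration read-out; IC50 by curve fitting, converted to Ki via Cheng-Prusoff.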

Assay [3] has as its target T2, human cloned 5-HT1A receptors (Homo sapiens, UniProt P08908).
T2 construct: expressed in transfected cells; host or cells: HeLa (human), stably transfected; membranes
T2 sequence (P08908 1-422): T1 sequence (P08908 1-422)
In words: [35S]GTPγS binding, functional activity. The class given is biochemical. Further details: key: neutral antagonists (NA); inverse agonists (IA). Conditions: HeLa membranes with human 5-HT1A. The protocol:
On the date of the experiment, cell membranes from HeLa cells transfected with human cloned 5-HT1A receptors were resuspended in buffer pH 7.4 containing 20 mM HEPES, 3 mM MgCl2 and 120 mM NaCl (Stanton, J. A.; Beer, M. S. Eur. J. Pharmacol. 320, 267-275, 1997). The membranes were incubated with 10 μM GDP and decreasing concentrations of test drugs (from 100 μM to 0.1 nM) or decreasing concentrations of 5-HT (from 100 μM to 0.1 nM, reference curve) for 20 min at 30° C. in a final volume of about 0.25 ml. [^35S]GTPγS (200-250 pM in 10 μl) was added to samples and incubated for a further 30 min at 30° C. Non-specific binding was determined in the presence of 10 μM GTPγS. The incubation was stopped by addition of ice-cold HEPES buffer and rapid filtration on Unifilter GF/C filters, using a Filtermate cell harvester (Packard). The filters were washed four times with total 1.2 ml of same buffer. Radioactivity was counted by liquid scintillation spectrometry with efficiency >90% (TopCount Packard). Stimulation of [^35S]GTPγS binding induced by the compounds tested was expressed as % increase in binding above basal value, being the maximal stimulation observed with 5-HT taken as 100%. The concentration-response curve of the agonistic activity was analyzed by non linear fitting program (De Lean et al., Am. J. Physiol. 235, E97-E102, 1978).
A stimulation of [^35S]GTPγS binding represented the functional correlate of the binding of an agonist compound at the 5-HT1A receptors. Stimulation induced by the endogenous ligand 5-HT was considered the maximal stimulation attainable. Compounds stimulating [^35S]GTPγS binding at a lower level were considered as partial agonists. […] Compounds that reduced [^35S]GTPγS binding were considered as inverse agonists.

For another assay, the target named is T3, 5-HT1A receptors (Rattus norvegicus, UniProt P19327).
T3 construct: from tissue; host or cells: living male Sprague-Dawley rats (whole animal, behavioural read-out)
T3 sequence (P19327 1-422): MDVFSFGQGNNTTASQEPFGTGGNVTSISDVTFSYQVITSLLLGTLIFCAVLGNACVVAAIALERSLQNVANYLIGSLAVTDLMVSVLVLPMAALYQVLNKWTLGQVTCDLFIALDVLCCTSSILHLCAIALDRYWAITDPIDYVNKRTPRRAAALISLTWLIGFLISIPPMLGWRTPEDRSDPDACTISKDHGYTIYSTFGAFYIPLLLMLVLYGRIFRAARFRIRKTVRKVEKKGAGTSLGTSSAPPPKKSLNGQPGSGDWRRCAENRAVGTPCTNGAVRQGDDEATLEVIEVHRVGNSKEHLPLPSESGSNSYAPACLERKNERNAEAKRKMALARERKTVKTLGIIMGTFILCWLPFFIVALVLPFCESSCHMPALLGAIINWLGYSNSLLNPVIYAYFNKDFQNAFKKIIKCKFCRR
Description: Inhibition of serotonergic syndrome (forepaw treading) induced by 8-OH-DPAT in rats (post-synaptic antagonism). It counts as in vivo. The conditions noted are these: rat, 10 mg/kg p.o. The protocol:
The inhibitory effect of 5-HT1A-receptor antagonists on stereotyped forepaw treading induced in rats by subcutaneous injection of 8-OH-DPAT was evaluated by the method of Tricklebank (Tricklebank et al., Eur. J. Pharmacol., 117: 15, 1985) with minor modifications as described below.
Male Sprague-Dawley rats [Crl: CD® (SD) IGS BR] weighing 150-175 g from Charles River Italia were used. The animals were housed with free access to food and water and maintained on a forced 12-hour-light/12-hour-dark cycle at 22-24° C. of temperature. On the day of the experiment, the rats were placed singly in clear plastic containers, 10-15 minutes before oral administration of the vehicle or compounds to be tested. For evaluation of antagonistic activity, the compounds were administered 1 and 4 hours before induction of stereotypy by 8-OH-DPAT (1 mg/kg subcutaneously). Observation sessions lasted 30 seconds and began 3 minutes after 8-OH-DPAT treatment and were repeated every 3 minutes over a period of 15 minutes.
The appearance of the symptoms induced by postsynaptic stimulation of 5-HT1A receptors was noted, and the intensity was scored using an intensity scale in which: 0=absent, 1=equivocal, 2=present and 3=intense. Behavioural scores for treated rats were accumulated throughout the observation time (5 observation periods) and expressed as mean values of 4 rats/dose. Change in mean values of treated animals in comparison with control (vehicle) group, expressed as per-cent inhibition, was used to quantify the antagonistic activity.
In order to quantitate the potency of the compound of Example 24 in inhibiting the stereotypy (forepaw treading) induced by 8-OH-DPAT, an ED50 value (dose inhibiting by 50% the forepaw treading) was evaluated by means of linear regression using the least square method.

As to `CCN(CC)CC#CCOC(=O)C(O)(c1ccccc1)C1CCCCC1` (centres unmarked) [Oxybutynin, oxybutynin], the “bladder volume capacity (BVC)” value in the assay on urinary bladder is recorded as “slight, not-significant increase”. Also, the “micturition pressure (MP)” value in the assay on urinary bladder is reported as “greatly reduced”. Further, the median effective dose (ED50) in assay [1] (intravenous administration, n.a. = not active, no significant reduction of the height of the peaks, read-out: ED50 (amplitude) (extrapolated dose inducing a 30% reduction of amplitude of the contractions in 50% of treated rats)) was 0.24 mg/kg; in assay [1] (intravenous administration, read-out: ED50 (frequency) (extrapolated dose inducing a reduction of the number of contractions >30% in 50% of treated rats)), > 10 mg/kg. The “frequency of bladder contractions” value in assay [1] (at 240 μg/kg) was “did not lower the frequency”. Besides, the “ED10 min (extrapolated dose inducing 10 minutes of disappearance of the contractions)” value in assay [1] (intravenous administration) was 7.77 mg/kg.

As to `COc1ccccc1N1CCN(CCN(C(=O)C2CCCCC2)c2ccccn2)CC1` [WAY-100635], the “cognitive deficits induced by glutamatergic and cholinergic dysfunction” value in the assay on primates is given as “can alleviate”.

Take `COc1ccccc1N1CCN(CC[C@@H](c2ccccc2F)[C@H](NC(C)=O)C2CCCCC2)CC1` (racemic) [Example 7, N-{(RS,SR)-1-Cyclohexyl-2-(2-fluorophenyl)-4-[4-(2-methoxyphenyl)-piperazin-1-yl]butyl}acetamide]: the inhibition constant Ki in assay [2] came out at 1.69 nM. Besides, the “Functional Activity” value in assay [3] is “IA”. In addition, the inhibition at 10 mg/kg came out at 87% at 5-HT1A receptors (1 h before 8-OH-DPAT 1 mg/kg s.c., read-out: % Inhibition of forepaw treading, 1 h) and 86% on 5-HT1A receptors (4 h before 8-OH-DPAT 1 mg/kg s.c., read-out: % Inhibition of forepaw treading, 4 h).
